Values after ≈ are worked out from the molar mass of the structure shown. Like-named read-outs stand apart in the source and are kept apart here. Marks after values point to notes of the source that are not given here.
Columns and labels:
K. pneumoniae [1] = system: K. pneumoniae; set-up: method as in PMID 24014169; details: K. pneumoniae ATCC 13883; cited from earlier work
P. aeruginosa [2] = system: P. aeruginosa; set-up: method as in PMID 24014169; details: P. aeruginosa ATCC 15692 (footnote e); cited from earlier work
MraY (E. coli) = system: MraY (E. coli); set-up: method as in PMID 24014169; details: cited from earlier work
A. baumannii [3] = system: A. baumannii; set-up: method as in PMID 24014169; details: A. baumannii ATCC 19606; cited from earlier work
S. aureus [4] = details: S. aureus ATCC 6538P, cited from earlier work
E. faecium [5] = system: E. faecium; set-up: method as in PMID 24014169; details: cited from earlier work
Gram-positive bacteria = system: Gram-positive bacteria; set-up: method as in PMID 24014169; details: range over strains; cited from earlier work
E. cloacae [6] = system: E. cloacae; set-up: method as in PMID 24014169; details: E. cloacae ATCC 13047; cited from earlier work
E. faecalis [7] = system: E. faecalis; set-up: method as in PMID 24014169; details: E. faecalis ATCC 29212; cited from earlier work
[8] = system: vancomycin-resistant Enterococci (VRE), clinically isolated E. faecium and E. faecalis; assay type: cell-based; details: VRE E. faecium ATCC 51559, 51858, E. faecalis 51299 and clinically isolated E. faecium and E. faecalis
A. baumannii [9] = assay: Antibacterial activity, MIC by microdilution broth method (CLSI); assay type: cell-based; details: Acinetobacter baumannii, ATCC19606; A. baumannii ATCC 19606; CA-MHB, 37 °C, 20 h
E. cloacae [10] = assay: as above; assay type: cell-based; details: Enterobacter cloacae, ATCC13047; E. cloacae ATCC 13047; CA-MHB, 37 °C, 20 h
E. faecium [11] = assay: as above; assay type: cell-based, Enterococcus faecium; details: for MIC: Enterococcus faecium, read-out: MIC
[12] = molecular target: T1, MraYSA (S. aureus MraY enzyme) (Staphylococcus aureus, UniProt Q2FZ93); assay: Fluorescence-based MraY inhibitory assay (dansylated Park's nucleotide); details: for MraYSA activity, source data of Fig. 7b, average: average of n=1-3
T1 sequence (Q2FZ93 1-321): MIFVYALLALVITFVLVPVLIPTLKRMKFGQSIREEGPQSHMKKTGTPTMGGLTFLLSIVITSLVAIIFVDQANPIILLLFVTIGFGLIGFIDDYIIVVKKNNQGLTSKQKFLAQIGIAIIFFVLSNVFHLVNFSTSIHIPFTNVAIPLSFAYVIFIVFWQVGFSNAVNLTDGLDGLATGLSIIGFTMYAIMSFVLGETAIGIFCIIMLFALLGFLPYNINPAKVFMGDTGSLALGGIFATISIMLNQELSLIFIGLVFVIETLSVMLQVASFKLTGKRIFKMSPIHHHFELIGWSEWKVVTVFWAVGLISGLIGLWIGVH

E. faecalis [13] = assay: Antibacterial activity, MIC by microdilution broth method (CLSI); assay type: cell-based; details: for MIC: Enterococcus faecalis
S. aureus [14] = assay: as above; assay type: cell-based, Staphylococcus aureus; details: Staphylococcus aureus
K. pneumoniae [15] = assay: as above; assay type: cell-based; details: Klebsiella pneumoniae, ATCC13883; K. pneumoniae ATCC 13883; CA-MHB, 37 °C, 20 h
E. coli = assay: as above; details: E. coli ATCC 25922; CA-MHB, 37 °C, 20 h
P. aeruginosa [16] = assay: as above; assay type: cell-based; details: Pseudomonas aeruginosa, ATCC27853; P. aeruginosa ATCC 27853; CA-MHB, 37 °C, 20 h
M. avium = assay: MIC in 7H9 liquid medium, 2 weeks; assay type: cell-based; details: Mycobacterium avium, ATCC25291, 336 h, M. avium ATCC 25291, 37 °C, minimum concentration inhibiting at least 50% of growth
M. tuberculosis = assay: MIC in 7H9 liquid medium, 2 weeks; assay type: cell-based; details: Mycobacterium tuberculosis, 336 h, M. tuberculosis H37Rv, 37 °C, minimum concentration inhibiting at least 50% of growth

## CCCC(C)CC(C)CC(C)CC(C)/C=C(C)/C=C/C(O)C(C)C(=O)OC1C(O)CN2CC1NC[C@H]1O[C@@H](O[C@H]([C@H]3O[C@@H](n4ccc(=O)[nH]c4=O)[C@H](O)[C@@H]3OS(=O)(=O)O)[C@H]2C(=O)O)[C@H](O)[C@@H]1O (stereo partly drawn) [Sphaerimicin A]
K. pneumoniae [1]
  MIC: >128 µg/mL
P. aeruginosa [2]
  MIC: >128^e μg/mL
MraY (E. coli)
  IC50: 13.9 nM
  IC50 for MraY: 0.0135 µg/mL
A. baumannii [3]
  MIC: >128 µg/mL
S. aureus [4]
  MIC: 4^d μg/mL
S. aureus [4]; listed as sphaerimicin A
  MIC: 4 µg/mL (≈ 4.1 µM)
E. faecium [5]; (footnote c)
  MIC: 2^c μg/mL
E. faecium [5]; E. faecium ATCC 19434
  MIC: 2 µg/mL (≈ 2.05 µM)
Gram-positive bacteria
  MIC against Gram-positive bacteria: 1 to 16 µg/mL
E. cloacae [6]
  MIC: >128 µg/mL
E. faecalis [7]
  MIC: 2 µg/mL (≈ 2.05 µM)

## CCCCCCCCCCCCCCCC(=O)O[C@@H]1C[C@@H]2CN(C1)[C@H](C(=O)O)[C@@H]([C@H]1O[C@@H](n3ccc(=O)[nH]c3=O)[C@H](O)[C@@H]1O)O[C@@H]1O[C@H](CN2)[C@@H](O)[C@H]1O [SPM-3]
[8]
  MIC (range over strains): 0.5 to 8 µg/mL
A. baumannii [9]
  MIC: > 64 µg/mL
E. cloacae [10]
  MIC: > 64 µg/mL
E. faecium [11]; ATCC35667, 20 h, E. faecium ATCC 35667, CA-MHB, 37 °C, 20 h
  MIC: 2 µg/mL (≈ 2.6 µM)
E. faecium [11]; ATCC 51559 / VRE, E. faecium (VRE) ATCC 51559
  MIC: 2 µg/mL (≈ 2.6 µM)
E. faecium [11]; ATCC 51858 / VRE, E. faecium (VRE) ATCC 51858
  MIC: 8 µg/mL (≈ 10.4 µM)
E. faecium [11]; clinically isolated E. faecium strain 1
  MIC: 2 µg/mL (≈ 2.6 µM)
E. faecium [11]; clinically isolated E. faecium strain 2
  MIC: 2 µg/mL (≈ 2.6 µM)
E. faecium [11]; clinically isolated E. faecium strain 3
  MIC: 4 µg/mL (≈ 5.2 µM)
E. faecium [11]; clinically isolated E. faecium strain 4
  MIC: 1 µg/mL (≈ 1.3 µM)
E. faecium [11]; clinically isolated E. faecium strain 5
  MIC: 2 µg/mL (≈ 2.6 µM)
E. faecium [11]; clinically isolated E. faecium strain 7
  MIC: 2 µg/mL (≈ 2.6 µM)
E. faecium [11]; clinically isolated E. faecium strain 8
  MIC: 2 µg/mL (≈ 2.6 µM)
E. faecium [11]; clinically isolated E. faecium strain 9
  MIC: 1 µg/mL (≈ 1.3 µM)
E. faecium [11]; clinically isolated E. faecium strain 10
  MIC: 1 µg/mL (≈ 1.3 µM)
E. faecium [11]; clinically isolated E. faecium strain 11
  MIC: 4 µg/mL (≈ 5.2 µM)
E. faecium [11]; clinically isolated E. faecium strain 13
  MIC: 1 µg/mL (≈ 1.3 µM)
E. faecium [11]; clinically isolated E. faecium strain 14
  MIC: 0.5 µg/mL (≈ 0.65 µM)
E. faecium [11]; clinically isolated E. faecium strain 15
  MIC: 2 µg/mL (≈ 2.6 µM)
E. faecium [11]; clinically isolated E. faecium (14 strains)
  MIC (range over strains): 0.5 to 4 µg/mL
[12]
  IC50: 41 nM
[12]; compound 0.0001 µM
  MraYSA activity, source data of Fig. 7b, average: 97.0831
[12]; compound 0.001 µM
  MraYSA activity, source data of Fig. 7b, average: 91.2486
[12]; compound 0.01 µM
  MraYSA activity, source data of Fig. 7b, average: 63.9982
[12]; compound 0.1 µM
  MraYSA activity, source data of Fig. 7b, average: 42.189
[12]; compound 1 µM
  MraYSA activity, source data of Fig. 7b, average: 10.7538
[12]; compound 10 µM
  MraYSA activity, source data of Fig. 7b, average: 6.7446
[12]; compound 100 µM
  MraYSA activity, source data of Fig. 7b, average: 3.028
[12]; ratio of IC50 values, SPM-3 vs SPM-1
  fold weaker compared to SPM-1 (MraYSA IC50): 4.5 fold
E. faecalis [13]; ATCC 51299 / VRE, E. faecalis (VRE) ATCC 51299
  MIC: 1 µg/mL (≈ 1.3 µM)
E. faecalis [13]; clinically isolated E. faecalis strain 21
  MIC: 0.5 µg/mL (≈ 0.65 µM)
E. faecalis [13]; clinically isolated E. faecalis strain 22
  MIC: 0.5 µg/mL (≈ 0.65 µM)
E. faecalis [13]; clinically isolated E. faecalis strain 23
  MIC: 1 µg/mL (≈ 1.3 µM)
E. faecalis [13]; clinically isolated E. faecalis strain 24
  MIC: 1 µg/mL (≈ 1.3 µM)
E. faecalis [13]; clinically isolated E. faecalis strain 25
  MIC: 0.5 µg/mL (≈ 0.65 µM)
E. faecalis [13]; clinically isolated E. faecalis strain 26
  MIC: 0.5 µg/mL (≈ 0.65 µM)
E. faecalis [13]; clinically isolated E. faecalis strain 27
  MIC: 0.5 µg/mL (≈ 0.65 µM)
E. faecalis [13]; clinically isolated E. faecalis strain 28
  MIC: 1 µg/mL (≈ 1.3 µM)
E. faecalis [13]; clinically isolated E. faecalis strain 29
  MIC: 1 µg/mL (≈ 1.3 µM)
E. faecalis [13]; clinically isolated E. faecalis strain 30
  MIC: 0.5 µg/mL (≈ 0.65 µM)
E. faecalis [13]; clinically isolated E. faecalis strain 31
  MIC: 1 µg/mL (≈ 1.3 µM)
E. faecalis [13]; clinically isolated E. faecalis strain 32
  MIC: 1 µg/mL (≈ 1.3 µM)
E. faecalis [13]; clinically isolated E. faecalis strain 33
  MIC: 1 µg/mL (≈ 1.3 µM)
E. faecalis [13]; clinically isolated E. faecalis strain 34
  MIC: 0.5 µg/mL (≈ 0.65 µM)
E. faecalis [13]; clinically isolated E. faecalis strain 35
  MIC: 1 µg/mL (≈ 1.3 µM)
E. faecalis [13]; clinically isolated E. faecalis (15 strains)
  MIC (range over strains): 0.5 to 1 µg/mL
S. aureus [14]; ATCC29213, 20 h, S. aureus ATCC 29213, CA-MHB, 37 °C, 20 h
  MIC: 8 µg/mL (≈ 10.4 µM)
S. aureus [14]; MRSA, 20 h, S. aureus (MRSA) JE2, CA-MHB, 37 °C, performed once
  MIC: 8 µg/mL (≈ 10.4 µM)
S. aureus [14]; MRSA, clinically isolated MRSA #1958
  MIC: 16 µg/mL (≈ 20.8 µM)
S. aureus [14]; MRSA, clinically isolated MRSA #2071
  MIC: 16 µg/mL (≈ 20.8 µM)
S. aureus [14]; MRSA, clinically isolated MRSA #2110
  MIC: > 64 µg/mL
S. aureus [14]; MRSA, clinically isolated MRSA #2310
  MIC: 32 µg/mL (≈ 41.6 µM)
S. aureus [14]; MRSA, clinically isolated MRSA #2334
  MIC: > 64 µg/mL
S. aureus [14]; MRSA, clinically isolated MRSA #2931
  MIC: 4 µg/mL (≈ 5.2 µM)
S. aureus [14]; MRSA, clinically isolated MRSA #2932
  MIC: 32 µg/mL (≈ 41.6 µM)
S. aureus [14]; MRSA, clinically isolated MRSA #2933
  MIC: 8 µg/mL (≈ 10.4 µM)
S. aureus [14]; MRSA, clinically isolated MRSA #2934
  MIC: 8 µg/mL (≈ 10.4 µM)
S. aureus [14]; MRSA, clinically isolated MRSA #2935
  MIC: 32 µg/mL (≈ 41.6 µM)
K. pneumoniae [15]
  MIC: > 64 µg/mL
E. coli
  MIC: >64 µg/mL
P. aeruginosa [16]
  MIC: > 64 µg/mL
M. avium
  MIC: 4 µg/mL (≈ 5.2 µM)
M. tuberculosis
  MIC: 16 µg/mL (≈ 20.8 µM)
